System: pro-inflammatory cytokines in the plasma
Experiment: Multiplex analysis of cytokine levels in plasma, murine LPS ARDS model
Type: in vivo, mouse
Details: for IL3 level in plasma / IL7 level in plasma / MCP-1 level in plasma / MIP-1alpha level in plasma / MIP-2 level in plasma: in pg/mL (unit assumed)
From the text: C57B16/N mice were obtained from Charles River Laboratories (Montreal, Quebec). Male mice, 20-25 g of body weight, were used throughout the studies. Animals were housed in specific pathogen[…]free conditions, and all experiments were approved by Institutional Animal Care and Use Committee (IPST_SL20200402-1). Animal studies are reported in compliance with […] guidelines.
All delivered mice were kept for one week as an acclimatization period prior to performing any experiments. Animals were housed in a maximum of two mice per cage under a 12[…]h light/12[…]h dark cycle at a temperature of ˜20-22° C. and 40-60% humidity. Food and water were available ad libitum. Each cage of mice was blindly assigned for different treatments or maintained as a control group according to the experimental design. The individual who carried out the experiments was not blinded as to treatment, but data analysis and experiments were otherwise blinded to avoid any bias.
In the ARDS group, mice received Escherichia coli O111:B4 lipopolysaccharide (50 μg in 0.05 mL saline, i.t.), while, in the control group, the animals received an instillation of saline (0.05 mL, i.t.). For intratracheal instillation, mice were slightly anesthetized with isoflurane.
The lipid SPPCT-800 was dissolved in water (low dose—2 mg/ml; high dose—20 mg/ml). For the 24-hour study, two treatment approaches were used. Mice received a single dose of SPPCT-800 (200 mg/kg, per gavage) as prevention (30 minutes before the LPS instillation), or as a single dose of either 20 mg/kg or 200 mg/kg as therapy (3-hour after the LPS instillation). For the 72-hour study, mice received a total of 8 treatments of SPPCT-800 (200 mg/kg) starting at 3-hour after the LPS instillation. Disease progression in mice was assessed by the evaluation of pulmonary functions, blood oxygen saturation, and body weight change. On the terminal day of each study (24 hours or 72 hours), measurement of cytokine levels in the plasma and BALF, and histopathology evaluations were done.
Multiplex analysis of mediators. The inventors quantified 31 different mediators in the BALF and plasma by using a Discovery Assay® (Mouse Cytokine and Chemokine Array 31-Plex (MD31), Eve Technologies Corp, Calgary, AB, Canada). The multiplex assay was performed at Eve Technologies using the Bio-Plex™ 200 system (Bio-Rad Laboratories, Inc., Hercules, CA, USA) and a Milliplex Mouse Cytokine/Chemokine kit (Millipore, St. Charles, MO, USA) according to Eve Tech protocol. The 31-plex consisted of Eotaxin, G-CSF, GM-CSF, IFN-γ, IL-1α, IL-1β, IL-2, IL-3, IL-4, IL-5, IL-6, IL-7, IL-9, IL-10, IL-12 (p40), IL-12 (p70), IL-13, IL-15, IL-17, IP-10, KC, LIF, MCP-1, M-CSF, MIG, MIP-1α, MIP-1β, MIP-2,RANTES, TNFα, and VEGF. The assay sensitivities of these markers range from 0.1 pg/mL to 33.3 pg/mL. Individual analytes' values and other assay details are available on Eve Technologies' website and in the Milliplex protocol.
Statistical Analysis. Results are expressed as means±SEM. Comparisons were made on normally distributed data using ANOVA, followed by a Fisher post hoc test to assess the difference between LPS+vehicle group with GraphPad Prism Software version 8.0 (San Diego, CA, USA). Differences were considered statistically significant when P values were less than 0.05. (* Shown difference versus Sham animals and # shown difference versus LPS+Vehicle group. * Means P<0.05, ** P<0.01, *** P<0.001 while # means P<0.05, ##P<0.01 and ###P<0.001).

[1] = 24-hours, Pre: SPP4040 30 minutes before LPS
[2] = 24-hours, Thera: SPP4040 3 hours after LPS
[3] = 72-hours, Thera: eight SPP4040 injections over 72 hours after LPS

CCCCCCCCCCCCCC(=O)OCC(COP(=O)([O-])OCC(COC(=O)CCC)OC(=O)CCC)OC(=O)CCCCCCCCCCCCC.CCCCCCCCCCCCCC(=O)OCC(COP(=O)([O-])OCC(COC(=O)CCC)OC(=O)CCC)OC(=O)CCCCCCCCCCCCC.[Mg+2] (centres unmarked) [SPPCT-800]
Eotaxin level in plasma [1]: 719 ± 138
G-CSF level in plasma [1]: 21035 ± 2241
GM-CSF level in plasma [1]: 12 ± 2
IFN gamma level in plasma [1]: 1 ± 1
IL1-alpha level in plasma [1]: 3196 ± 3107
IL1-beta level in plasma [1]: 3.8 ± 0.7
IL2 level in plasma [1]: 11 ± 3
IL4 level in plasma [1]: 0.2 ± 0.1
IL5 level in plasma [1]: 8 ± 2
IL6 level in plasma [1]: 176 ± 29
IL9 level in plasma [1]: 2 ± 1
IL10 level in plasma [1]: 57 ± 8
IL12 (p40) level in plasma [1]: 12 ± 1
IL12 (p70) level in plasma [1]: 17 ± 7
IL13 level in plasma [1]: 22 ± 3
IL15 level in plasma [1]: 63 ± 15
IL17 level in plasma [1]: 2.6 ± 0.3
IP-10 level in plasma [1]: 790 ± 206
KC level in plasma [1]: 1271 ± 224
LIF level in plasma [1]: 1.3 ± 0.2
LIX level in plasma [1]: 470 ± 145
M-CSF level in plasma [1]: 12 ± 1
MIG level in plasma [1]: 2486 ± 203
MIP-1beta level in plasma [1]: 109 ± 8
RANTES level in plasma [1]: 200 ± 28
TNF-alpha level in plasma [1]: 14 ± 1
VEGF level in plasma [1]: 0.5 ± 0.1
IL3 level in plasma [1]: 0.9 ± 0.1
IL7 level in plasma [1]: 8 ± 2
MCP-1 level in plasma [1]: 86 ± 20
MIP-1alpha level in plasma [1]: 88 ± 4
MIP-2 level in plasma [1]: 138 ± 7
Eotaxin level in plasma [2]: 855 ± 228
G-CSF level in plasma [2]: 22915 ± 410
GM-CSF level in plasma [2]: 11 ± 1
IFN gamma level in plasma [2]: 1 ± 1
IL1-alpha level in plasma [2]: 159 ± 39
IL1-beta level in plasma [2]: 3.6 ± 0.6
IL2 level in plasma [2]: 16 ± 1
IL4 level in plasma [2]: 0.4 ± 0.2
IL5 level in plasma [2]: 11 ± 2
IL6 level in plasma [2]: 155 ± 30
IL9 level in plasma [2]: 6 ± 2
IL10 level in plasma [2]: 90 ± 32
IL12 (p40) level in plasma [2]: 12 ± 2
IL12 (p70) level in plasma [2]: 40 ± 19
IL13 level in plasma [2]: 22 ± 2
IL15 level in plasma [2]: 49 ± 16
IL17 level in plasma [2]: 2.3 ± 0.6
IP-10 level in plasma [2]: 605 ± 102
KC level in plasma [2]: 764 ± 274
LIF level in plasma [2]: 1.5 ± 0.2
LIX level in plasma [2]: 547 ± 203
M-CSF level in plasma [2]: 16 ± 4
MIG level in plasma [2]: 2593 ± 317
MIP-1beta level in plasma [2]: 120 ± 29
RANTES level in plasma [2]: 270 ± 70
TNF-alpha level in plasma [2]: 14 ± 1
VEGF level in plasma [2]: 0.6 ± 0.1
IL3 level in plasma [2]: 0.5 ± 0.7
IL7 level in plasma [2]: 4 ± 1
MCP-1 level in plasma [2]: 157 ± 62
MIP-1alpha level in plasma [2]: 92 ± 7
MIP-2 level in plasma [2]: 128 ± 5
TNF-α levels in the plasma (in words) (72-hour study, P<0.05): markedly reduced
Eotaxin level in plasma [3]: 464 ± 252
G-CSF level in plasma [3]: 1116 ± 502
GM-CSF level in plasma [3]: 6 ± 2
IFN gamma level in plasma [3]: 6 ± 2
IL1-alpha level in plasma [3]: 63 ± 27
IL1-beta level in plasma [3]: 6.8 ± 3.8
IL2 level in plasma [3]: 34 ± 10
IL4 level in plasma [3]: 0.6 ± 0.4
IL5 level in plasma [3]: 2 ± 1
IL6 level in plasma [3]: 76 ± 31
IL9 level in plasma [3]: 3 ± 1
IL10 level in plasma [3]: 5 ± 1
IL12 (p40) level in plasma [3]: 8 ± 1
IL12 (p70) level in plasma [3]: 11 ± 5
IL13 level in plasma [3]: 23 ± 3
IL15 level in plasma [3]: 40 ± 22
IL17 level in plasma [3]: 4 ± 3
IP-10 level in plasma [3]: 150 ± 34
KC level in plasma [3]: 502 ± 150
LIF level in plasma [3]: 0.5 ± 0.1
LIX level in plasma [3]: 574 ± 445
M-CSF level in plasma [3]: 5 ± 2
MIG level in plasma [3]: 447 ± 137
MIP-1beta level in plasma [3]: 55 ± 13
RANTES level in plasma [3]: 19 ± 2
TNF-alpha level in plasma [3]: 7 ± 2
VEGF level in plasma [3]: 7.4 ± 2.4
IL3 level in plasma [3]: 0.1 ± 0.1
IL7 level in plasma [3]: 3 ± 1
MCP-1 level in plasma [3]: 34 ± 6
MIP-1alpha level in plasma [3]: 133 ± 11
MIP-2 level in plasma [3]: 56 ± 17
IL-1β, IL-2, IL-3, IL-4, IL-5, IL-6, IL-7, IL-9, IL-10, IL-12 (p40), IL-12 (p70), IL-13, IL-15 and IL-17 in plasma (in words) (at 24 hours): markedly reduced
MCP-1 in the plasma (in words) (at 24 hours and at 72 hours): inhibited
MIP-1α and MIP 1-β in the plasma (in words) (at 24 hours and at 72 hours): Suppressive effects
GM-CSF in the plasma (in words) (at 24 hours, 200 mg/kg preventive, 20 mg/kg therapeutic and 200 mg/kg therapeutic, P<0.001): highly significant depressions
TNF-α in the plasma (in words) (at 24 hours, all three single dose groups, P<0.001): markedly reduced
IFN-γ levels in the plasma (in words) (at 24 hours, all three single-dose groups, P<0.01): profoundly depressed
levels of plasma IL-1α (in words) (at 24 hours, any of the mouse groups): did not reduce
IFN-γ levels in the plasma (in words) (at 72 hours): Large reductions
GM-CSF in the plasma (in words) (at 72 hours, P<0.01): significant decreases
RANTES in the plasma (in words) (at both 24 hours and 72 hours): suppressed
MIG, IP10 and Eotaxin (in words) (marked suppression in the plasma or the BALF, but not in both): mixed
G-CSF, VEGF, KC, LIF, LIX and M-CSF in the plasma (in words) (mouse, in vivo): suppressed
number of the 15 interleukins tested in which major reductions were consistently noted (plasma and BALF): 14

Reference: patent US20240091242A1, “LIPIDS THAT REDUCE LUNG DAMAGE, IMPROVE PULMONARY FUNCTION AND DECREASE PRO-INFLAMMATORY CYTOKINES” (Signpath Pharma, Inc., priority 2021, published 2024)
